SMILES strings stand for the structures. Some results are limits rather than exact numbers.

Assay [1] deals with T1, 5-hydroxytryptamine receptor 3A (Homo sapiens, UniProt P46098).
T1 sequence (P46098 whole entry): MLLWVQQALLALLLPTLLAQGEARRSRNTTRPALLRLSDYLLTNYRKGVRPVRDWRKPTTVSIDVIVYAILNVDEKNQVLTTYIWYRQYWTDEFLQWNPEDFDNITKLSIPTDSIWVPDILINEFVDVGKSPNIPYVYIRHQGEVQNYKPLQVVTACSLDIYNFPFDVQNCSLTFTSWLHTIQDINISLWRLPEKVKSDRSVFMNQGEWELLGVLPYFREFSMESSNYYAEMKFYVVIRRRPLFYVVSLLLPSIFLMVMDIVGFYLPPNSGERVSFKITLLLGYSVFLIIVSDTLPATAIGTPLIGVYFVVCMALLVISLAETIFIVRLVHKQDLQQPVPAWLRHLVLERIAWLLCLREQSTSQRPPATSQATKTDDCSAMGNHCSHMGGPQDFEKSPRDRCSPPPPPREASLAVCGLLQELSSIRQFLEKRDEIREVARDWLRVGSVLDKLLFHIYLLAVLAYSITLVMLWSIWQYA
Type of assay: functional.

The next assay has as its target T2, Thromboxane A2 receptor (Homo sapiens, UniProt P21731).
T2 sequence (P21731 whole entry): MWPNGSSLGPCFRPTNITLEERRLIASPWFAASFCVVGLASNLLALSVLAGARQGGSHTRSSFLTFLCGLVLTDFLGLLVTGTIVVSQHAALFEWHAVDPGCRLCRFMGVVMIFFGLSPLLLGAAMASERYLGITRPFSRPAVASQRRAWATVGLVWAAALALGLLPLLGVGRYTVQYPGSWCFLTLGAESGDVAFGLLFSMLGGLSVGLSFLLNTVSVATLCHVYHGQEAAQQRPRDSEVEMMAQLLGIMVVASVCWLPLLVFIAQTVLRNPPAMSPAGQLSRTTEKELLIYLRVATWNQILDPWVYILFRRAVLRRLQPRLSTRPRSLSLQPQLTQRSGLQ

Assay [2] deals with T3, Gastrin/cholecystokinin type B receptor (Homo sapiens, UniProt P32239).
T3 sequence (P32239 whole entry): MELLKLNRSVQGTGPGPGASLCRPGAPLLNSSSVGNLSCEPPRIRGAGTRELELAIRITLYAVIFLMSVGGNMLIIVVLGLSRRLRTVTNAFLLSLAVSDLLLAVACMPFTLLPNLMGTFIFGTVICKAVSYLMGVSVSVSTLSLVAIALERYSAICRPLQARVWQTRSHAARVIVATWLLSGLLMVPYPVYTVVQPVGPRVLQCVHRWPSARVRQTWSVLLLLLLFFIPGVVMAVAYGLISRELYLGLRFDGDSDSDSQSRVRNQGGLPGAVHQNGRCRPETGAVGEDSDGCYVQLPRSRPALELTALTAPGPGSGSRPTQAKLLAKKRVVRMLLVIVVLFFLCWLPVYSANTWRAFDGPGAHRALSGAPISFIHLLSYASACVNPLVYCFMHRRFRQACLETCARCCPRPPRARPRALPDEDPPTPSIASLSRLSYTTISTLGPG

Assay [3] has as its target Muscarinic acetylcholine receptor M3 (Homo sapiens, UniProt P20309).
Assay [4] has as its target T4, 5-hydroxytryptamine receptor 1A (Homo sapiens, UniProt P08908).
T4 sequence (P08908 whole entry): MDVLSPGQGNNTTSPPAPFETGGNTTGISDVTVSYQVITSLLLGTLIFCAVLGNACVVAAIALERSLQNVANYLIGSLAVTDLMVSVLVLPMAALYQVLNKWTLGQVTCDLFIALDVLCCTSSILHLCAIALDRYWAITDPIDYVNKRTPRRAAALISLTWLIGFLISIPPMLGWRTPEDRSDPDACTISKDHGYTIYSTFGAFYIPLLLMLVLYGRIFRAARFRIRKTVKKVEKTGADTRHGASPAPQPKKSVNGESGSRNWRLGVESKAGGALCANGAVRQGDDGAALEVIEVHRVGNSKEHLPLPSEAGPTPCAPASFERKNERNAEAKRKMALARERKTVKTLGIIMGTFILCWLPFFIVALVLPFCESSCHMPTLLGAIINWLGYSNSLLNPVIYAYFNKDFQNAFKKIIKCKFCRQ
It is filed as functional, cell-based.

For another assay, the target named is Mu-type opioid receptor (Homo sapiens, UniProt P35372). Put plainly: biochemical. Type of assay: functional.
Chain of Mu-type opioid receptor (P35372 whole entry): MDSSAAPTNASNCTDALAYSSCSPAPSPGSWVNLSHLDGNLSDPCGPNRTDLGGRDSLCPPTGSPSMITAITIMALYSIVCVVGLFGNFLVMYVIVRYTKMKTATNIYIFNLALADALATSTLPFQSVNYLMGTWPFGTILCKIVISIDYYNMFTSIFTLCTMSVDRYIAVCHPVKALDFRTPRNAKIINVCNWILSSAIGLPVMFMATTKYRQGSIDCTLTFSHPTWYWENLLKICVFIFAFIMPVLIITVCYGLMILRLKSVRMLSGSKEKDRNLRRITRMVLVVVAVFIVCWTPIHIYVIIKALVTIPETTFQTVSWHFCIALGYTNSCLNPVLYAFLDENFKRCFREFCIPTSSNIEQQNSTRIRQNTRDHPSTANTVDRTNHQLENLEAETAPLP
For assay [5], the target named is T5, Amine oxidase [flavin-containing] A (Homo sapiens, UniProt P21397).
T5 sequence (P21397 whole entry): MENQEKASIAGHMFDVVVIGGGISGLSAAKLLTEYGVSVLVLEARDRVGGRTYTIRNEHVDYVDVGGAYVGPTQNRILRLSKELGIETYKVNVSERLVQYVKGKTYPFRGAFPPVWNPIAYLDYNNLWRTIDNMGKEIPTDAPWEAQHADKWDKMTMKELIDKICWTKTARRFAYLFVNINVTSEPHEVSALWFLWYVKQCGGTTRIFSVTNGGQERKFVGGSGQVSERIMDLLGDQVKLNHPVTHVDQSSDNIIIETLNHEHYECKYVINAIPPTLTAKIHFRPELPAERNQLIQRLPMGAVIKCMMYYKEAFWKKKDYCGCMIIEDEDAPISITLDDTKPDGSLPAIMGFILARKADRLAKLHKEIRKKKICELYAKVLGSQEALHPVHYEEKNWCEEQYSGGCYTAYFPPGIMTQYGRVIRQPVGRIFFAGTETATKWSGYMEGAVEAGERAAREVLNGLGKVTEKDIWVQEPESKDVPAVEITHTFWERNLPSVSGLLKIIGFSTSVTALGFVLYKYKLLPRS
It is filed as functional.

The next assay addresses Vasopressin V1a receptor (Homo sapiens, UniProt P37288).
The target of assay [6] is Neuronal acetylcholine receptor subunit alpha-4 (Homo sapiens, UniProt P43681).
Chain of Neuronal acetylcholine receptor subunit alpha-4 (P43681 whole entry): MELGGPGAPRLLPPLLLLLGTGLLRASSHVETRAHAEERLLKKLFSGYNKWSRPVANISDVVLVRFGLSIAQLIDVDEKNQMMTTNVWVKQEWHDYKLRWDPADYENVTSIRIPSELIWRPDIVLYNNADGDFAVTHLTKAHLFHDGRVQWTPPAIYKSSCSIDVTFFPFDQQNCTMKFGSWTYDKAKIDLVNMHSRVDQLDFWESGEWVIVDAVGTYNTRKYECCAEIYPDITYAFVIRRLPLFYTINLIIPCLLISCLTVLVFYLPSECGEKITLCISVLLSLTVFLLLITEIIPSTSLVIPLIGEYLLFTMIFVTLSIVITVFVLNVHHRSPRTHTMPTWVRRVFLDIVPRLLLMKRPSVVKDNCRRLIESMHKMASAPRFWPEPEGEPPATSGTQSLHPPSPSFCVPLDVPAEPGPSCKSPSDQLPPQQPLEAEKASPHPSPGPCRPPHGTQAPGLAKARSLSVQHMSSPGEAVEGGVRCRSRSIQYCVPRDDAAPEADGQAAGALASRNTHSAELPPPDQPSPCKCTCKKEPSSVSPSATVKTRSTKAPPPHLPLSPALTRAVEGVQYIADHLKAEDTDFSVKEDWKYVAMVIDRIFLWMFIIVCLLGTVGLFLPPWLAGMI
Further: assay procedure not described here.

Chain of Vasopressin V1a receptor (P37288 whole entry): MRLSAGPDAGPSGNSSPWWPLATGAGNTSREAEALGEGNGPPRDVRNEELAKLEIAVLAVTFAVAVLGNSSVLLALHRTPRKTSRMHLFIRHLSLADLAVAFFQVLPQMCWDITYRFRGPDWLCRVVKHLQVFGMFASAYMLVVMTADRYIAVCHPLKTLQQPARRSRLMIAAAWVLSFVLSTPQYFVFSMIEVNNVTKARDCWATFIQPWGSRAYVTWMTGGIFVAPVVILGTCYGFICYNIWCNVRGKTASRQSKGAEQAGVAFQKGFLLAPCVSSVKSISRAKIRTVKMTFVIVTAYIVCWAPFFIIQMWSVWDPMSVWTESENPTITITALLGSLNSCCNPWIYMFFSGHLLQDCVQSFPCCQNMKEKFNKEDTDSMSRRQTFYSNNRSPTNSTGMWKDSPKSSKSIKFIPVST
Chain of Muscarinic acetylcholine receptor M3 (P20309 whole entry): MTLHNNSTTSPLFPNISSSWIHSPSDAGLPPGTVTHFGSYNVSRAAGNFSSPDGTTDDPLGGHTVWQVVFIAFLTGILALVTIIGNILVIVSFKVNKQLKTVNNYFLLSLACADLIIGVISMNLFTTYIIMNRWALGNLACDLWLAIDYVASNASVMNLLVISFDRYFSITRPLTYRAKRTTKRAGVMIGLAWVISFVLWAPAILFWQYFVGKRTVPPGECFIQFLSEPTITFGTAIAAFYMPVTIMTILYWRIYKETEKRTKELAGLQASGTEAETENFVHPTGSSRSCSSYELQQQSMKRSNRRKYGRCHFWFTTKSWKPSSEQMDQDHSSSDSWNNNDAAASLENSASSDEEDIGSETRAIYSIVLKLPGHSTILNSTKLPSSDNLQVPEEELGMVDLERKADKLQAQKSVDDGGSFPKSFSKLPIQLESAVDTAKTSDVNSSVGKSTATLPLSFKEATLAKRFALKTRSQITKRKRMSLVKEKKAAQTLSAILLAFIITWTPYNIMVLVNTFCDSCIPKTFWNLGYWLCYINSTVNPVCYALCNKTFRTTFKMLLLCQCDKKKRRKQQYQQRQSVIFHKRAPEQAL

Regarding `O=C(C[S+]([O-])C(c1ccccc1)c1ccccc1)NO` (centres undefined), the AC50 (in assay [1]; on Thromboxane A2 receptor; in [2]; in assay [3]; in [4]; at Mu-type opioid receptor) was > 30 µM each time. Moreover, the AC50 (in assay [5]; at Vasopressin V1a receptor; in assay [6]) was > 30 µM throughout.
In the case of `CCCCC(C)(O)C/C=C/[C@H]1[C@H](O)CC(=O)[C@@H]1CCCCCCC(=O)OC` (some centres undefined) [MISOPROSTOL], the AC50 (in assay [1]; at Thromboxane A2 receptor; in assay [2]; in [3]; in assay [4]; at Mu-type opioid receptor) was > 30 µM each time. For the same molecule, the half-maximal activity concentration (AC50) (in assay [5]; on Vasopressin V1a receptor; in [6]) was > 30 µM in each case.
With `C#C[C@]1(O)CC[C@H]2[C@@H]3CCC4=CCCC[C@@H]4[C@H]3CC[C@@]21C` [LYNESTRENOL], the AC50 (in [1]; at Thromboxane A2 receptor; in [2]; in assay [3]; in assay [4]; on Mu-type opioid receptor) was > 30 µM each time. Besides, the concentration at half-maximal activity (AC50) is 0.3 µM in assay [5], > 30 µM at Vasopressin V1a receptor and > 30 µM in assay [6].
For `C1=Cc2cccc(OCC3CNCCO3)c2C1` (centres undefined) [INDELOXAZINE], the AC50 in assay [1] was 25 µM; at Thromboxane A2 receptor, > 30 µM; in [2] it was > 30 µM; in assay [3], > 30 µM; in assay [4], > 30 µM; at Mu-type opioid receptor it was > 30 µM. For the same molecule, the AC50 (in assay [5]; at Vasopressin V1a receptor; in assay [6]) was > 30 µM throughout.
For the molecule `COc1ccc2cccc(CCNC(C)=O)c2c1` [AGOMELATINE], the concentration at half-maximal activity (AC50) was > 30 µM in assay [1]; > 30 µM at Thromboxane A2 receptor; > 30 µM in [2]; > 10 µM in [3]; > 10 µM in assay [4]; > 30 µM at Mu-type opioid receptor. Moreover, the AC50 (in [5]; at Vasopressin V1a receptor; in [6]) was > 10 µM in each case.
`Cc1c(Cl)cccc1Nc1ccccc1C(=O)O` [TOLFENAMIC ACID]: the AC50 was > 30 µM in assay [1]; > 30 µM on Thromboxane A2 receptor; > 10 µM in assay [2]; > 30 µM in assay [3]; 22 µM in assay [4]; > 30 µM on Mu-type opioid receptor. Further, the AC50 (in [5]; at Vasopressin V1a receptor; in [6]) was > 30 µM in each case.
As for `CCC(C(=O)O)c1ccc(CC(C)C)cc1` (centres undefined) [BUTIBUFEN], the AC50 (in [1]; on Thromboxane A2 receptor; in assay [2]; in [3]; in [4]; on Mu-type opioid receptor) was > 30 µM throughout. Also, the AC50 (in [5]; at Vasopressin V1a receptor; in assay [6]) was > 30 µM each time.
Regarding `COC(=O)C1=C(C)NC(C)=C(C(=O)OC(C)C)C1c1cccc2nonc12` (centres undefined) [ISRADIPINE], the concentration at half-maximal activity (AC50) in assay [1] was > 30 µM; on Thromboxane A2 receptor it was 20.1 µM; in assay [2], 34.1 µM; in assay [3], > 30 µM; in assay [4], > 10 µM; at Mu-type opioid receptor, > 30 µM. Besides, the AC50 (in assay [5]; at Vasopressin V1a receptor; in assay [6]) was > 30 µM in each case.
In the case of `CCCCCN(C)CCC(O)(P(=O)(O)O)P(=O)(O)O` [IBANDRONIC ACID], the AC50 in assay [1] was > 30 µM; on Thromboxane A2 receptor, > 30 µM; in assay [2], > 30 µM; in [3], > 30 µM; in assay [4], > 10 µM; at Mu-type opioid receptor it was 8.5 µM. Besides, the AC50 (in [5]; at Vasopressin V1a receptor; in assay [6]) was > 30 µM in each case.
Regarding `Cc1ccc(-c2nc3ccc(C)cn3c2CC(=O)N(C)C)cc1` [ZOLPIDEM], the AC50 was > 30 µM in [1]; > 30 µM at Thromboxane A2 receptor; > 30 µM in [2]; > 30 µM in assay [3]; > 10 µM in [4]; > 30 µM at Mu-type opioid receptor. The half-maximal activity concentration (AC50) (in assay [5]; on Vasopressin V1a receptor; in [6]) was > 30 µM in each case.
For the molecule `O=C(O)CCCc1ccccc1` [PHENYLBUTANOIC ACID], the half-maximal activity concentration (AC50) in assay [1] is > 30 µM; on Thromboxane A2 receptor, > 10 µM; in assay [2], > 10 µM; in [3], > 30 µM; in assay [4], > 10 µM; on Mu-type opioid receptor, > 30 µM. Besides, the AC50 in [5] was > 30 µM; on Vasopressin V1a receptor it was > 30 µM; in [6], > 10 µM.
